Measurements as given in article PMC10536132, “Arginine Gemini-Based Surfactants for Antimicrobial and Antibiofilm Applications: Molecular Interactions, Skin-Related Anti-Enzymatic Activity and Cytotoxicity” (Molecules, 2023).
Marks after values point to notes of the source that are not given here.

Columns and labels:
[1] = test system: squamous cell carcinoma (A431); assay: Cell viability, NRU assay; assay type: cell-based; conditions: A431, surfactant in solution at 35.6 µg/mL, 24 h
Protocol: The immortal human keratinocyte (HaCaT) and the squamous cell carcinoma (A431) were obtained from Celltec, University of Barcelona. The cells were grown in DMEM medium (4.5 g/L glucose) supplemented with 10% (v/v) FBS, 2 mM L-glutamine, 100 U/mL of penicillin and 100 μg/mL of streptomycin at 37 °C under 5% CO2. Cells were routinely cultured in 75 cm^2 culture flasks and were trypsinized using trypsin-EDTA when reached approximately 80% of confluence.
HaCaT cells (1 × 10^5 cells/mL) and A431 cells (5 × 10^4 cells/mL) were grown at the defined densities into the central 60 wells of a 96-well microplate. Cells were incubated for 24 h under 5% CO2 at 37 °C. The medium was then removed and the cells were incubated with the surfactants (100 μL), previously diluted 1:1 (v/v), reaching a concentration of […] in DMEM medium supplemented with 5% FBS using two different colorimetric methods for quantification, as follows.
The accumulation of the neutral red dye in the lysosomes of viable, undamaged cells constitutes the basis of the neutral red uptake (NRU) assay. After the cells were incubated for 24 h with the corresponding systems at 35.6 µg/mL, the medium was removed and the surfactants´ solutions were incubated for 3 h with the NRU dye solution (50 μg/mL) dissolved in the medium without FBS and phenol red (Lonza). Cells were then washed with sterile PBS, followed by the addition of 100 μL of a solution containing 50% ethanol absolute and 1% acetic acid in distilled water to extract the non-adhered dye. The microplates were then stirred for 5 min at 25 °C to promote the dissolution. Finally, the absorbance of the resulting solutions was measured at λ = 550 nm using a Bio-Rad 550 microplate reader (Hercules, CA, USA).

[2] = design: method as in doi:10.1021/la981295l; conditions: cited from earlier work
bovine hyaluronidase = assay: Hyaluronidase inhibitory activity; assay type: biochemical; conditions: negative inhibition values
In short: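 Bovine hyaluronidase (7900 units/mL working solution, 0.1 M acetate pH 3.6) was mixed 1:1 with surfactant in 5% DMSO for 20 min at 37 °C, then with CaCl2 (12.5 mM) for 20 min, then sodium hyaluronate (1.2 mg/mL) for 40 min. The p-dimethylaminobenzaldehyde colour was read at 585 nm. % inhibition = (A1−A2)/A1×100.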

[3] = test system: Pseudomonas aeruginosa PAO1 biofilm; assay: Biofilm eradication, crystal violet; assay type: cell-based; conditions: P. aeruginosa PAO1, at 32 μg/mL
Protocol: (§1) The ability of these geminis to disperse and eradicate biofilms once formed on the propylene surfaces of the microtiter plates was evaluated using the same bacterial strains. […] The susceptibility of both biofilms against the tested surfactants was similar. At a low concentration of 32 μg/mL, C3(CA)2 and C3(LA)2 were able to eradicate around 60–70% of preformed biofilm; however, at this concentration, the […] hydrophobic compound, C3(OA)2, eradicated less than 30% of biofilm. At high concentrations, the eradication percentage is similar for all alkyl chains. […] In this case, at low concentrations, there is not a clear dependence between the antibiofilm properties and the spacer; however, at a high concentration, the best effectivity was obtained for the longer spacer chains.
(§2) Antibiofilm activity was assessed against biofilm-producing strains of methicillin-resistant Staphylococcus aureus (MRSA) ATCC 43300 and Pseudomonas aeruginosa PAO1. Biofilm inhibition and eradication capacities of the gemini surfactants were evaluated against adherent bacterial biofilms grown in 96-well microtiter plates. Bacteria were grown overnight in tryptic soy agar at 37 °C for 24 h. The bacteria were suspended in lysogeny broth with glucose (1%) at 1.5 × 10^8 CFU/mL.
(§3) Biofilm eradication procedure: For mature biofilm formation, 200 μL of the diluted bacterial suspension was added to each well in a 96-well microplate and incubated at 37 °C for 24 h. The wells were gently rinsed with phosphate-buffered saline (PBS) and 200 μL of the corresponding gemini surfactant solution was added to each well and incubated again at 37 °C for 24 h. Two-fold serial dilutions of the gemini surfactant were used (4–128 μg/mL). After the plates were air dried, the biofilms were stained with 50 μL of 0.1 of % crystal violet for 25 min. The plates were rinsed with water and then 150 μL of 96% ethanol containing 10% acetic acid was added to all 96-well plates to dissolve the remaining crystal violet-stained biofilm. The absorbance value was recorded at 570 nm. Each assay was conducted at least three times and the results were averaged.

[4] = test system: methicillin-resistant Staphylococcus aureus (MRSA) ATCC 43300 biofilm; assay: Biofilm eradication, crystal violet; assay type: cell-based; conditions: at 32 μg/mL
Protocol: as §1, §2, §3

[5] = design: method as in doi:10.1021/la981295l; conditions: cited from earlier work; remark: listed apart in the source

CCCCCCCCCCCC(=O)NC(CCCNC(=N)N)C(=O)NCCCNC(=O)C(CCCNC(=N)N)NC(=O)CCCCCCCCCCC (stereo not drawn) [C3(LA)2, Bis (N^α-lauroyl arginine 1,3-propane) diamide]
cytotoxicity, in words [1]: did not cause any apparent cytotoxicity
CMC (mM) Fluorescence [2]: 0.4 * mM
increase of hyaluronidase enzymatic activity (bovine hyaluronidase): 48.3%
preformed biofilm eradicated [3]: 60–70%
preformed biofilm eradicated [4]: 60–70%
CMC (mM) Surface Tension [5]: 0.005 * mM
γcmc ([5]; surface tension at the cmc): 35 * mN/m
